Consider three compounds from PMC3093627 (Research in Pharmaceutical Sciences, 2010).

Data set [1] relates to morphine brain distribution. The conditions noted are these: rats; cited from earlier work.
The subject of the next data set is MDCK II cells. The conditions noted are these: probenecid 10 μM, d-glucose 5 μM, digoxin 5 μM, M6G 100 μg/ml, cyclosporin 10 μM.

As for `COc1cc2c(cc1OC)CN(CCc1ccc(NC(=O)c3cccc4c(=O)c5cccc(OC)c5[nH]c34)cc1)CC2` [GF120918], in data set [1], the “Reduction of morphine brain distribution” value is recorded as 42%.

For the compound `C[C@H]1O[C@@H](O[C@H]2[C@@H](O)C[C@H](O[C@H]3[C@@H](O)C[C@H](O[C@H]4CC[C@@]5(C)[C@H](CC[C@@H]6[C@@H]5C[C@@H](O)[C@]5(C)[C@@H](C7=CC(=O)OC7)CC[C@]65O)C4)O[C@@H]3C)O[C@@H]2C)C[C@H](O)[C@@H]1O` [digoxin], the “Effect on morphine permeability via MDCK II cells” value with MDCK II cells is given as “significant fall”.

On to `CN1CC[C@]23c4c5ccc(O)c4O[C@H]2[C@@H](O[C@@H]2O[C@H](C(=O)O)[C@@H](O)[C@H](O)[C@H]2O)C=C[C@H]3[C@H]1C5` [M6G, morphine 6 glucoronide], for which, in the data set with MDCK II cells, the “Effect on morphine permeability via MDCK II cells” value was “no significant effects”.
